test system: DU-145 cells; experiment: antiproliferative activity against DU-145 cells; format: cell-based, human; settings: not given

Row | Structure (SMILES) | antiproliferative activity (in words) | GI50 values (range in words)
1 | CN(Cc1ccco1)C(=O)N1CCC(c2nc(-c3ccc(F)cc3)no2)CC1 [Compound 8a] | markedly lower | –
2 | CCCCNC(=O)N1CCC(c2nc(-c3ccc(F)cc3)no2)CC1 [Compound 8b] | no activity was detected | –
3 | COC(=O)CNC(=O)N1CCC(c2nc(-c3ccc(F)cc3)no2)CC1 [Compound 8e] | no activity was detected | –
4 | O=C(NCc1ccsc1)N1CCC(c2nc(-c3ccc(F)cc3)no2)CC1 [Compound 8g] | – | submicromolar range
5 | O=C(N1CCC(c2nc(-c3ccc(F)cc3)no2)CC1)N1CCCc2ccccc21 [Compound 8i] | complete loss | –
6 | O=C(N1CCC(c2nc(-c3ccc(F)cc3)no2)CC1)N1CCc2ccccc2C1 [Compound 8j] | markedly lower | –
7 | C#CCNC(=O)N1CCC(c2nc(-c3ccc(F)cc3)no2)CC1 [Compound 8k] | no activity was detected | –
8 | Cc1cc(CNC(=O)N2CCC(c3nc(-c4ccc(F)cc4)no3)CC2)nn1C [Compound 8o] | – | submicromolar range
9 | O=C(NCc1ccccc1)N1CCC(c2nc(Cc3ccccc3)no2)CC1 [Compound 11b] | – | submicromolar range
10 | O=C(NCc1ccccc1)N1CCC(c2nc(COc3ccccc3)no2)CC1 [Compound 11d] | – | submicromolar range
11 | O=C(NCc1ccsc1)N1CCCC(c2nc(Cc3ccccc3)no2)C1 (centres unmarked) [Compound 13] | completely eliminated | –
12 | O=C(NCc1ccsc1)N1CCCCC1c1nc(Cc2ccccc2)no1 (centres unmarked) [Compound 14] | completely eliminated | –
13 | O=C(NCc1ccsc1)N1CCC(c2nc(Cc3ccccc3)no2)C1 (centres unmarked) [Compound 15] | drastically reduced | –
14 | O=C(NCc1ccsc1)N1CCCC1c1nc(Cc2ccccc2)no1 (centres unmarked) [Compound 16] | completely eliminated | –

same assay, conditions: means of three experiments ± standard deviation, Inactive = <20% DU-145 growth inhibition at 50 μM

Row | Structure (SMILES) | GI50
15 | CCCCNC(=O)N1CCC(c2nc(-c3ccc(F)cc3)no2)CC1 [Compound 8b] | Inactive
16 | COC(=O)CNC(=O)N1CCC(c2nc(-c3ccc(F)cc3)no2)CC1 [Compound 8e] | Inactive
17 | O=C(N1CCC(c2nc(-c3ccc(F)cc3)no2)CC1)N1CCCc2ccccc21 [Compound 8i] | Inactive
18 | C#CCNC(=O)N1CCC(c2nc(-c3ccc(F)cc3)no2)CC1 [Compound 8k] | Inactive
19 | O=C(N1CCC(c2nc(-c3ccc(F)cc3)no2)CC1)N1CCc2ccccc21 [Compound 8l] | Inactive
20 | O=C(N1CCCCC1)N1CCC(c2nc(-c3ccc(F)cc3)no2)CC1 [Compound 8m] | Inactive
21 | O=C(N1CCOCC1)N1CCC(c2nc(-c3ccc(F)cc3)no2)CC1 [Compound 8n] | Inactive
22 | CC(C)(C)NC(=O)N1CCC(c2nc(-c3ccc(F)cc3)no2)CC1 [Compound 8q] | Inactive
23 | COCCNC(=O)N1CCC(c2nc(-c3ccc(F)cc3)no2)CC1 [Compound 8r] | Inactive
24 | O=C(NCC1CC1)N1CCC(c2nc(-c3ccc(F)cc3)no2)CC1 [Compound 8s] | Inactive
25 | CC(C)Cc1noc(C2CCN(C(=O)NCc3ccccc3)CC2)n1 [Compound 11i] | Inactive
26 | Cc1noc(C2CCN(C(=O)NCc3ccccc3)CC2)n1 [Compound 11j] | Inactive

— article PMC4191898 (Bioorganic & medicinal chemistry letters, 2014)
